Laboratory results: article PMC6822764, “MitoToxy assay: A novel cell-based method for the assessment of metabolic toxicity in a multiwell plate format using a lactate FRET nanosensor, Laconic” (PLoS ONE, 2019)
Several values for one entry are separate records, joined by “and”; a condition that tells them apart may be missing. Equal values may be shown once. Entries after “also recorded” stand apart in the source; their conditions may differ. Read-outs that look alike come from different tables or passages of the source.

Tests used:
[1] = system: MDA-MB-231 cells stably expressing the FRET lactate indicator Laconic (MitoTox Reporter); assay: MitoToxy assay: toxicity-induced lactate accumulation in MitoTox Reporter cells, 96-well plate reader, with 50 μM pCMBS; format: cell-based
Method: (§1) MitoTox reporter cell line was cultured in Leibowitz media (Gibco) supplemented with 10% of fetal bovine serum (FBS) at 37°C at atmospheric CO2 levels in a 100 mm petri dish. Once cells reached 100% confluency, they were trypsinized using 5% trypsin (Gibco) and washed in PBS. Viability was determine using trypan blue staining and 10,000 cells were seeded into each well of a 96 well plate. Experiments in 96 well format were performed once cells reached 100% confluency after 6 days, during the incubation media was not replaced. All the plates with signal-to-noise ration below 1.3 for monomeric Teal Fluorescent Protein (mTFP) and Venus channels were discarded. Background signal was determined with KRH buffer without cells. Experiments consisted in washing out the culture media using KRH HEPES buffer containing (mM) 136 NaCl, 3 KCl, 1.25 CaCl2, 1.25 MgCl2, 10 HEPES/Tris and pH 7.2 at 37°C with 300 mOsm. Then 200 μl of KRH HEPES buffer without any carbon sources was added to each well and the baseline was measured (RMIN), then 100 μl of buffer was replaced with mitochondrial toxicant/controls and signal was measured to obtain a stimulated response (RMAX). In experiments were pCMBS was used to block lactate exit, the inhibitor was added simultaneously with the mitochondrial toxicants. Data was collected in triplicated after 5, 10, 30, and 60 minutes of incubation. All the experiments in 96 well plates were performed in an EnVision® multiplate reader (PerkinElmer). Each well was excited at 430 nm and the intensity of mTFP and Venus fluorescence emission were recorded at 485 nm and 528 nm, using a set of filters.
(§2) Where R(mTFP/Venus) min corresponded to the minimal change of mTFP/Venus ratio during the single-cell experiments. Results in 96 well plates experiments were expressed by the ΔR%. This parameter was obtained from the difference between the RMAX and RMIN from the same well (before-after experiment) as follow: ΔR%=(R(mTFP/Venus)max−R(mTFP/Venus)min/R(mTFP/Venus)min)x100

[2] = system: clonal MDA-MB-231 cells expressing Laconic; assay: Single-cell lactate imaging of MitoTox Reporter cells; format: cell-based; details: 32 μM rotenone, 16 μM antimycin, 80 μM oligomycin, 10 μM myxothiazol
From the text: To generate a cell system with a high signal-to-noise ratio suitable for standard multiplate readers, we developed a clonal cell line with high levels and homogeneous Laconic expression. To do so, we produced a lentivirus particle to infect and transduce Laconic in MDA-MB-231 cells. From pooled cells with diverse levels of Laconic expression we selected high expression clones through FACS. […] We termed this cell line “MitoTox Reporter”. Exposure of these cells to classical mitochondrial poisons produced a robust increase in the fluorescent signal, indicating acute toxicity-induced lactate accumulation. […] With this evidence in hand, cells were tested in a multi-well plate reader.
Fig 3 Characterization of “MitoTox reporter” cell line. A) Confocal images from FACS selected clonal MDA-MB-231 cells expressing Laconic. Size bars for 20x and 60x represent 100 μm and 10 μm, respectively. Cytosolic lactate accumulation induced by treatment with: B) 32 μM rotenone, C) 16 μM of antimycin, D) 80 μM of oligomycin, and 10 μM myxothiazol. Each trace is the average of ten cells from one representative experiment.

[3] = system: mitochondrial membrane potential (MMP); details: cited from earlier work
[4] = system: glutathione (GSH); parameters: method as in Li et al., 2014 [50]; details: treatment time 6 hours; ref Li et al., 2014 [50]; cited from earlier work
[5] = system: cell viability; parameters: method as in Li et al., 2014 [50]; details: treatment time 6 hours; ref Li et al., 2014 [50]; cited from earlier work
[6] = system: reactive oxygen species (ROS); parameters: method as in Li et al., 2014 [50]; details: treatment time 6 hours; ref Li et al., 2014 [50]; cited from earlier work
[7] = system: MitoTox Reporter cells (MDA-MB-231 expressing Laconic); assay: Pilot screening of 13 compounds with MitoTox Reporter cells, multiplate reader; format: cell-based; details: for ΔR% (lactate accumulation): average of 4 replicate wells, Fig 9 legend 30 minutes, 37°C; for Concentration at which toxicity / mitochondrial effects were detected in the pilot screening: tested at 1, 5 and 10 μM; for ΔR% variation / lactate accumulation over all concentrations tested: 1, 5, and 10 μM
Method: as §1, §2
Multiple comparisons versus control groups (Holm-Sidak method), Overall significance level P < 0,05.
The capability of the assay to identify previously described toxic drugs was explored through a pilot screening assay. We selected 13 compounds from a variety of therapeutic classes to perform a pilot screening assay using MitoTox Reporter cells and a standard multiplate reader. […] To perform the assays, we prepared master stocks for each compound in 0.2% DMSO. Assays were performed with compounds at final concentrations of 1, 5, and 10 μM and the response of MitoTox Reporter cells were measured at 5, 10, 30, and 60 minutes. […] As a negative control we selected a compound with no reported side-effects.

[8] = system: primary culture of astrocytes from the mouse cortex expressing Laconic; assay: Single-cell lactate imaging (Laconic) in primary culture of cortical astrocytes; format: cell-based; details: 32 μM rotenone, 16 μM antimycin, 5 mM azide, 80 μM oligomycin; buffer without carbon sources
Method: Animals used for primary cultures were mixed F1 male mice (C57BL/6J × CBA/J), kept in an animal room under SPF conditions at a room temperature of 20 ± 2°C, in a 12/12-h light/dark cycle and with free access to water and food. Mixed cortical cultures of neuronal and glia cells (1 –to 3-day-old neonates) was cultured in Neurobasal medium (Gibco) supplemented with 5 mM glucose and B27. Cells were seeded on petri dishes and superfused with KRH HEPES pH 7.4. The lactate imaging experiments with single-cell resolution were performed using cultured astrocytes at 11–14 days post-dissection. Real time experiments were performed with KRH HEPES bathing solution containing (in mM) 136 NaCl, 3 KCl, 1.25 CaCl2, 1.25 MgCl2, 10 HEPES/Tris and pH 7.2 at 36°C with 300 mOsm, without carbon sources for mitochondrial toxicant experiments and 2 mM glucose and 1 mM lactate for Warburg index determination. Experiments were performed in upright Olympus FV1000 confocal microscope equipped with a 20X water-immersion objective (numerical aperture, 1.0) and a 440 nm solid-state laser.
To plot the data, we used a ratio between mTFP and Venus channels. This ratio is proportional to lactate levels, since its binding to the sensor produced a decrease in FRET efficiency. This ratio was expressed in two formulas described below: NormalizedΔR=R(mTFP/Venus)/R(mTFP/Venus)min
With the aim of testing if this observation occurs in general and if azide induced-lactate accumulation can be reproduced using another mitochondrial toxicant with a different molecular target, we performed single-cell experiments exposing primary culture of astrocytes from the mouse cortex expressing Laconic (Fig 1A) to different mitochondria inhibitors that block the ETC at different levels (Fig 1C). To take advantage of the maximal dynamic range of the lactate FRET sensor the baseline measurements were performed using buffer without carbon sources to force start the experiments with lactate levels below 100 μM.
Each data point is from an average of ten cells from three independent experiments.

[9] = system: HepG2 cells; parameters: method as in Nadanaciva et al., 2012 [55]; details: treatment time 0.03 hours; ref Nadanaciva et al., 2012 [55]; cited from earlier work
[10] = system: HepG2 cells; parameters: method as in Nadanaciva et al., 2012 [55]; details: treatment time 0.03 hours; ref Nadanaciva et al., 2012 [55]; cited from earlier work; remark: listed apart in the source
[11] = system: HepG2 cells; parameters: method as in Marroquin et al., 2007 [35]; details: treatment time 24 hours; approximated IC50 directly from plotted data in the original paper; ref Marroquin et al., 2007 [35]; cited from earlier work
[12] = system: oxygen consumption; parameters: method as in Hynes et al., 2013 [72]; details: treatment time 0.13 hours; ref Hynes et al., 2013 [72]; cited from earlier work
[13] = system: extracellular acidification; parameters: method as in Hynes et al., 2013 [72]; details: treatment time 0.13 hours; ref Hynes et al., 2013 [72]; cited from earlier work
[14] = system: HepG2 cells; parameters: method as in PMID 22689143; details: cited from earlier work
[15] = dose-response, treatment time 0.5 hours (Fig 8 legend: 10 minutes), 37°C, read-out: IC50 (toxicity-induced lactate accumulation, MitoToxy)
[16] = treatment time 6 hours, ref Li et al., 2014 [50], read-out: IC50, MMP

Compound: CO/C(=C/C(N)=O)[C@H](C)[C@H](/C=C/c1csc(-c2csc([C@@H](C)/C=C/C=C/C(C)C)n2)n1)OC [myxothiazol]
- IC50 [1, 15]: 1.2 µM
- Intracellular lactate levels in MitoTox Reporter cells (single-cell) [2]: acute, fast, and robust increase of intracellular lactate levels
- IC50 [3, 16]: 1.2 µM
- IC50 [4]: > 1000 µM
- IC50 [5]: 183 µM
- IC50 [6]: 3.3 µM

Compound: CC(C)C(=O)Nc1ccc([N+](=O)[O-])c(C(F)(F)F)c1 [flutamide]
- ΔR% (lactate accumulation) ([7]; 10 μM): 8.71 ± 2.06%
- Concentration at which toxicity / mitochondrial effects were detected in the pilot screening [7]: 10 µM

Compound: CC1(C)NC(=O)N(c2ccc([N+](=O)[O-])c(C(F)(F)F)c2)C1=O [nilutamide]
- ΔR% variation / lactate accumulation over all concentrations tested [7]: did not produce ΔR% changes at all the concentrations tested
- ΔR% variation / lactate accumulation over all concentrations tested ([7]; listed as nilutamine): did not produce any effect

Compound: CC[C@H]1/C=C/C=C/C[C@@H](C)[C@H](O)[C@@](C)(O)C(=O)[C@@H](C)[C@H](O)[C@@H](C)C(=O)[C@@H](C)[C@H](O)[C@@H](C)/C=C/C(=O)O[C@@H]2[C@H](C)[C@H](CC1)O[C@]1(CC[C@H](C)[C@H](C[C@@H](C)O)O1)[C@H]2C [oligomycin]
- IC50 ([1]; Homo sapiens, MDA-MB-231, dose-response, treatment time 0.5 hours (Fig 8 legend: 10 minutes), 37°C, read-out: IC50 (toxicity-induced lactate accumulation, MitoToxy)): 0.038 µM
- Cytosolic lactate accumulation in astrocytes [8]: induced an acute cytosolic lactate accumulation
- Intracellular lactate levels in MitoTox Reporter cells (single-cell) [2]: acute, fast, and robust increase of intracellular lactate levels
- IC50 [9]: 1.1 µM
- IC50 [10]: 0.92 µM
- IC50 [11]: 0.005 µM
- IC50 [3, 16]: 15.6 µM
- IC50 [4]: 161 µM
- IC50 [5]: 182 µM
- IC50 [6]: > 1000 µM
- IC50 [12]: 0.038 µM
- IC50 [13]: 0.077 µM

Compound: COc1cc2nc(N3CCN(C(=O)c4ccco4)CC3)nc(N)c2cc1OC [prazosin]
- ΔR% variation / lactate accumulation over all concentrations tested [7]: None of these molecules produced an important ΔR% variation
- IC50 [3, 16]: 6.3 µM

Compound: COc1cc([C@@H]2c3cc4c(cc3[C@@H](O[C@@H]3O[C@@H]5CO[C@@H](C)O[C@H]5[C@H](O)[C@H]3O)[C@H]3COC(=O)[C@H]23)OCO4)cc(OC)c1O [etoposide]
- ΔR% variation / lactate accumulation over all concentrations tested [7]: None of these molecules produced an important ΔR% variation; also recorded: did not induce intra-cellular lactate accumulation

Compound: CN(C)C(=N)N=C(N)N [metformin]
- ΔR% variation / lactate accumulation over all concentrations tested [7]: None of these molecules produced an important ΔR% variation; also recorded: did not induce intra-cellular lactate accumulation

Compound: CN(CCOc1ccc(CC2SC(=O)NC2=O)cc1)c1ccccn1 (stereo not shown) [rosiglitazone]
- ΔR% (lactate accumulation) ([7]; 10 μM): over 14%
- Concentration at which toxicity / mitochondrial effects were detected in the pilot screening [7]: 5 µM
- IC50 [3, 16]: > 1000 µM
- Effect on OCR and ECAR ([14]; between 0.13 and 100 μM): no effects were detected

Compound: C=C(C)[C@H]1Cc2c(ccc3c2O[C@@H]2COc4cc(OC)c(OC)cc4[C@@H]2C3=O)O1 [rotenone]
- IC50 ([1]; Homo sapiens, MDA-MB-231, read-out: IC50 (toxicity-induced lactate accumulation)): 0.0027 ± 0.00141 µM
- IC50 ([1]; Homo sapiens, MDA-MB-231, read-out: IC50 (toxicity-induced lactate accumulation, MitoToxy)): 0.0025 µM
- Cytosolic lactate accumulation in astrocytes [8]: induced an acute cytosolic lactate accumulation
- Intracellular lactate levels in MitoTox Reporter cells (single-cell) [2]: acute, fast, and robust increase of intracellular lactate levels
- IC50 [9]: 0.371 µM
- IC50 [10]: 0.263 µM
- IC50 [11]: 0.05 µM
- IC50 [3, 16]: 20.3 µM
- IC50 [4]: 518 µM
- IC50 [5]: > 1000 µM
- IC50 [6]: 10.5 µM
- IC50 [12]: 0.02 µM
- IC50 [13]: 0.002 µM

Compound: CCC(C)(C)C(=O)O[C@H]1C[C@@H](C)C=C2C=C[C@H](C)[C@H](CC[C@@H]3C[C@@H](O)CC(=O)O3)[C@H]21 [simvastatin]
- ΔR% variation / lactate accumulation over all concentrations tested [7]: None of these molecules produced an important ΔR% variation
- IC50 [3, 16]: 63.2 µM

Compound: CC(=O)Oc1ccccc1C(=O)O [aspirin, acetylsalicylic acid]
- ΔR% variation / lactate accumulation over all concentrations tested [7]: None of these molecules produced an important ΔR% variation; also recorded: did not induce intra-cellular lactate accumulation

Compound: CC(C)(C)c1ccc(C(O)CCCN2CCC(C(O)(c3ccccc3)c3ccccc3)CC2)cc1 (stereo not shown) [terfenadine]
- ΔR% (lactate accumulation) ([7]; 1 μM): without any measurable effects
- ΔR% (lactate accumulation) ([7]; 5 μM): without any measurable effects
- ΔR% (lactate accumulation) ([7]; 10 μM): 15.64 ± 1.32%
- Concentration at which toxicity / mitochondrial effects were detected in the pilot screening [7]: 10 µM
- IC50 ([3]; unit inferred, read-out: IC50, MMP measurements): 4.4 µM

Compound: CC[C@@]1(O)C(=O)OCc2c1cc1n(c2=O)Cc2cc3ccccc3nc2-1 [camptothecin]
- ΔR% (lactate accumulation) ([7]; 1 μM): no change in ΔR% was detected
- ΔR% (lactate accumulation) ([7]; 5 μM): potent effect and 13.52 ± 3.6%
- ΔR% (lactate accumulation) ([7]; 10 μM): 49.18 ± 7.4%
- Cytosolic lactate accumulation (concentration) ([7]; 10 μM, inferred from the reported dynamic range and sensitivity of Laconic): over 10 mM
- Concentration at which toxicity / mitochondrial effects were detected in the pilot screening [7]: 5 µM
- IC50 [3, 16]: 206 µM

Compound: antimycin
- IC50 [1, 15]: 0.00024 µM
- Cytosolic lactate accumulation in astrocytes [8]: induced an acute cytosolic lactate accumulation
- Intracellular lactate levels in MitoTox Reporter cells (single-cell) [2]: acute, fast, and robust increase of intracellular lactate levels
- IC50 [9]: 0.1 µM
- IC50 [10]: 0.004 µM
- IC50 [11]: 0.006 µM
- IC50 [3, 16]: 2.1 µM
- IC50 [4]: 228 µM
- IC50 [5]: 291 µM
- IC50 [6]: 17.7 µM
- IC50 [12]: 0.039 µM
- IC50 [13]: 0.074 µM

Compound: CC1(COc2ccc(CC3SC(=O)NC3=O)cc2)CCCCC1 (stereo not shown) [ciglitazone]
- ΔR% (lactate accumulation) ([7]; 10 μM): over 14%
- Concentration at which toxicity / mitochondrial effects were detected in the pilot screening [7]: 5 µM
- IC50 [3, 16]: 136 µM
- EC50 ([14]; Seahorse technology, read-out: Concentration required to change the OCR and ECAR by 50%): > 100 µM
